Measured values reported in ChEMBL document CHEMBL3826903, “Extended rhodamine photosensitizers for photodynamic therapy of cancer cells” (Bioorg Med Chem, 2016).

Legend:
[1] = Drug localization in mitochondria of mouse Colon 26 cells assessed as bright detail similarity scores at 0.2 uM incubated for 15 mins in presence of MTG by flow cytometry; assay type: ADME; details: colon 26, 0.25 h
[2] = Drug localization in mitochondria of human HUT78 cells assessed as bright detail similarity scores at 0.2 uM incubated for 15 mins in presence of MTG by flow cytometry; assay type: ADME; details: hut78, 0.25 h
[3] = Induction of singlet oxygen assessed as quantum yields for generation of singlet oxygen by luminescence spectroscopy; assay type: physicochemical
Colon 26 [4] = assay: Phototoxicity against mouse Colon 26 cells assessed as cell survival fraction incubated for 1 hr in dark followed by irradiation with 1 J/cm'-2 light from tunable dye laser at 642 +/- 2 nm measured after 48 hrs by SRB assay; assay type: functional, cell-based; details: Colon 26, light or radiation study
Colon 26 [5] = assay: Dark toxicity against mouse Colon 26 cells assessed as cell survival fraction at 1 uM incubated for 1 hr in dark measured after 48 hrs by SRB assay; assay type: cell-based; details: colon 26, 1 µM
[6] = Dark toxicity against mouse Colon 26 cells assessed as cell survival fraction incubated for 1 hr in dark measured after 48 hrs by SRB assay; assay type: cell-based; details: read-out: LD50
[7] = Therapeutic index, ratio of LD50 for dark toxicity against mouse Colon 26 cells to EC50 for phototoxicity against mouse Colon 26 cells at 5 Jcm'-2 of irradiation with 700 +/- 2 nm light; assay type: cell-based; details: read-out: Ratio LD50/EC50
[8] = Therapeutic index, ratio of LD50 for dark toxicity against mouse Colon 26 cells to EC50 for phototoxicity against mouse Colon 26 cells at 10 Jcm'-2 of irradiation with 700 +/- 2 nm light; assay type: cell-based; details: read-out: Ratio LD50/EC50
Colon 26 [9] = assay: Phototoxicity against mouse Colon 26 cells assessed as cell survival fraction incubated for 1 hr in dark followed by irradiation with 5 J/cm'-2 light from tunable dye laser at 700 +/- 2 nm measured after 48 hrs by SRB assay; assay type: functional, cell-based; details: Colon 26, light or radiation study
Colon 26 [10] = assay: Phototoxicity against mouse Colon 26 cells assessed as cell survival fraction incubated for 1 hr in dark followed by irradiation with 10 J/cm'-2 light from tunable dye laser at 700 +/- 2 nm measured after 48 hrs by SRB assay; assay type: functional, cell-based; details: Colon 26, light or radiation study
[11] = Therapeutic index, ratio of LD50 for dark toxicity against mouse Colon 26 cells to EC50 for phototoxicity against mouse Colon 26 cells at 1 Jcm'-2 of irradiation with 660 +/- 2 nm nm light; assay type: cell-based; details: read-out: Ratio LD50/EC50
Colon 26 [12] = assay: Phototoxicity against mouse Colon 26 cells assessed as cell survival fraction incubated for 1 hr in dark followed by irradiation with 1 J/cm'-2 light from tunable dye laser at 660 +/- 2 nm measured after 48 hrs by SRB assay; assay type: functional, cell-based; details: Colon 26, light or radiation study
[13] = Therapeutic index, ratio of LD50 for dark toxicity against mouse Colon 26 cells to EC50 for phototoxicity against mouse Colon 26 cells at 5 Jcm'-2 of irradiation with 690 +/- 2 nm light; assay type: cell-based; details: read-out: Ratio LD50/EC50
[14] = Therapeutic index, ratio of LD50 for dark toxicity against mouse Colon 26 cells to EC50 for phototoxicity against mouse Colon 26 cells at 10 Jcm'-2 of irradiation with 690 +/- 2 nm light; assay type: cell-based; details: read-out: Ratio LD50/EC50
Colon 26 [15] = assay: Phototoxicity against mouse Colon 26 cells assessed as cell survival fraction incubated for 1 hr in dark followed by irradiation with 5 J/cm'-2 light from tunable dye laser at 690 +/- 2 nm measured after 48 hrs by SRB assay; assay type: functional, cell-based; details: Colon 26, light or radiation study
Colon 26 [16] = assay: Phototoxicity against mouse Colon 26 cells assessed as cell survival fraction incubated for 1 hr in dark followed by irradiation with 10 J/cm'-2 light from tunable dye laser at 690 +/- 2 nm measured after 48 hrs by SRB assay; assay type: functional, cell-based; details: Colon 26, light or radiation study

Row | Structure (SMILES) | Drug uptake [1] | Drug uptake [2] | Singlet oxygen quantum yield [3] | EC50 (Colon 26 [4]) | Activity (Colon 26 [5]) | CC50 at 1 h [6] | selectivity ratio [7] | selectivity ratio [8] | EC50 (Colon 26 [9]) | EC50 (Colon 26 [10]) | selectivity ratio [11] | EC50 (Colon 26 [12]) | selectivity ratio [13] | selectivity ratio [14] | EC50 (Colon 26 [15]) | EC50 (Colon 26 [16])
1 | CN(C)c1ccc2c(-c3ccccc3)c3ccc4cc(=[N+](C)C)ccc4c3sc2c1.F[P-](F)(F)(F)(F)F | 1.77 | 2.82 | 0.15 | 280 nM | Non-toxic | – | – | – | – | – | – | – | – | – | – | –
2 | CN(C)c1ccc2c(-c3ccccc3)c3cc4ccc(=[N+](C)C)cc4cc3[se]c2c1.F[P-](F)(F)(F)(F)F | 0.7204 | 0.683 | < 0.05 | – | Toxic | 2000 nM | 8.3 | 11 | 240 nM | 180 nM | – | – | – | – | – | –
3 | CN(C)c1ccc2c(-c3ccccc3)c3ccc4cc(=[N+](C)C)ccc4c3[se]c2c1.F[P-](F)(F)(F)(F)F | 1.38 | 2.458 | 0.65 | – | Non-toxic | > 1000 nM | – | – | – | – | > 15 | 64 nM | – | – | – | –
4 | CN(C)c1ccc2c(-c3ccccc3)c3cc4ccc(=[N+](C)C)cc4cc3sc2c1.F[P-](F)(F)(F)(F)F | 1.2 | 2.153 | < 0.05 | – | Toxic | 460 nM | – | – | – | – | – | – | 3.3 | 5.1 | 140 nM | 90 nM
